The conditions of data set [1]: Log P=log([solute]octanol/[solute]water), un-ionized compound; cited from earlier work.
The next data set deals with cholinesterase (ChE). As to conditions: human whole blood diluted 10 times, acetylthiocholine 1.8 mg/mL, 5 min incubation in capillary, room temperature.

“And” between values parts separate entries of the source, which are not always exact repeats. Equal values may be shown once.

Experimental for cholinesterase (ChE): For testing of a particular solvent, 5 μL blood sample (diluted) was injected into the capillary with the extraction solvent plug immediately after the mixing the acetylthiocholine into the blood. After the 5 min incubation in capillary, the TCh/ATch ratio was measured using SFME nanoESI MS. For the control, 5 min after the mixing acetylthiocholine into the diluted blood, the sample was taken and analyzed immediately using SFME nanoESI MS with ethyl acetate as the extraction phase. Spray voltage of 1.5 kV was used for nanoESI.
SFME-nanoESI was applied for monitoring the enzymatic activity of cholinesterase (ChE) in whole blood samples. […] The blood sample was diluted 10 times to slow down the reaction rate as well as to facilitate the slug flows for SFME. The substrate acetylthiocholine iodine was added into the diluted blood sample at a concentration of 1.8 mg/mL, and then 5 μL sample was taken immediately and injected into the capillary with 5 μL extraction phase. The capillary with the sample and the extraction solvent was left in room temperature 25° C. for incubation. The SFME-nanoESI could be performed repeatedly on the same sample and the ratio of the substrate ATCh and the reaction product TCh could be monitored as a function of time to characterize the enzymatic activity of the ChE. […]

For `N[C@@H](Cc1ccccc1)C(=O)O` [phenylalanine], the “Partition coefficient Log P” value in data set [1] is −1.38.
As for `CN1[C@H]2CC[C@@H]1[C@@H](C(=O)O)[C@@H](OC(=O)c1ccccc1)C2` [benzoylecgonine], the “Partition coefficient Log P” value in data set [1] was −0.6 and −0.59.
Consider `CN[C@@H](C)Cc1ccccc1` [methamphetamine], for which, in data set [1], the “Partition coefficient Log P” value was 2.1.
With `CCOC(C)=O` [ethyl acetate], the “reduction of ChE activity due to contact with extraction solvent” value in the data set with cholinesterase (ChE) is given as “minimal”.
Same read-out and setting: the entry for `ClC(Cl)Cl` [chloroform] is “more than 60%”.
